Data: patent US20240150293A1, “SPIROCYCLOHEXANE DERIVATIVES, PHARMACEUTICAL COMPOSITIONS CONTAINING THEM AND THEIR USES AS ANTI-APOPTOTIC INHIBITORS” (LES LABORATOIRES SERVIER, priority 2021, published 2024)
Read-outs that look alike come from different tables or passages of the source.

Tests used:
[1] = target: Cy5-labelled Mcl1 (amino acids 171-321) C286S protein (UniProtKB Q07820) (Homo sapiens (Human), UniProt Q07820, C286S); test: Inhibition of Mcl-1 by the fluorescence quenching assay (Example A, Method B); format: binding
Cy5-labelled Mcl1 (amino acids 171-321) C286S protein, sequence (Q07820 171-321 C286S): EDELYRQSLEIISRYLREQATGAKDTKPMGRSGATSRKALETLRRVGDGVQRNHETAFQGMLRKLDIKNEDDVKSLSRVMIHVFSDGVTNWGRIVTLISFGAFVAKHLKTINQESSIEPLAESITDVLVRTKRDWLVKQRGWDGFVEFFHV
In short: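 Eleven-point compound series incubated 2 h at room temperature with 1 nM Cy5-tagged protein and quencher-labelled PUMA peptide at 10, 20 or 400 nM in HEPES/NaCl/Tween 20, pH 7.4, 5% DMSO. IC50 for 50% fluorescence increase by 4-parameter fit, then Ki derived (complete cKi or estimated eKi).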

[2] = tested on: H929 multiple myeloma tumor line; test: In vitro cytotoxicity, MTT assay (Example B, Method A); format: cell-based; details: H929 cells, 48 hours exposure, read-out: C50
Method: The cytotoxicity studies were carried out on the H929 multiple myeloma tumor line.
The cells are distributed onto microplates and exposed to the test compounds for 48 hours. The cell viability is then quantified by a colorimetric assay, the Microculture Tetrazolium Assay (Carmichael et al, Cancer Res. 1987, 47, 939-942).
The results are expressed in C50 which means concentration corresponding to […] of effect/inhibition.

Compound | Ki [1] | IC50 ([2]; Homo sapiens, NCI-H929, 48 h) | IC50 [2]
C[C@@H](COc1ccnc2ccsc12)CC1=Cc2ccccc2[C@]12CC[C@@](Nc1cccc(Cl)c1)(C(=O)O)CC2 [Example 589, (1r,4R)-4-(3-chloroanilino)-2′-{(2R)-2-methyl-3-[(thieno[3,2-b]pyridin-7-yl)oxy]propyl}spiro[cyclohexane-1,1′-indene]-4-carboxylic acid] | 8.39 nM | 694 nM | –
C[C@@H]1CCCc2nccc(OCC(F)CC3Cc4ccccc4[C@]34CC[C@@](Nc3cccc(Cl)c3)(C(=O)O)CC4)c21 (single isomer, unassigned) [Example 507] | 8.76 nM | – | 2240 nM
C[C@@H](COc1ccnc2c1CCC2)C[C@@H]1Cc2ccccc2[C@]12CC[C@@](Nc1cccc(Cl)c1)(C(=O)O)CC2 [Example 598, (1r,2′R,4R)-4-(3-chloroanilino)-2′-{(2R)-3-[(6,7-dihydro-5H-cyclopenta[b]pyridin-4-yl)oxy]-2-methylpropyl}-2′,3′-dihydrospiro[cyclohexane-1,1′-indene]-4-carboxylic acid] | 4.29 nM | 590 nM | –
Cc1cc2c(cc1C)[C@]1(CC[C@@](Nc3cccc(Cl)c3)(C(=O)O)CC1)[C@H](C[C@@H](C)COc1ccnc3ccsc13)C2 [Example 734, (1r,2′R,4R)-4-(3-chloroanilino)-5′,6′-dimethyl-2′-{(2R)-2-methyl-3-[(thieno[3,2-b]pyridin-7-yl)oxy]propyl}-2′,3′-dihydrospiro[cyclohexane-1,1′-indene]-4-carboxylic acid] | 1.98 nM | 194 nM | –
C[C@@H](COc1ccnc2c1CCCC2C(F)F)C[C@H]1Cc2ccccc2[C@]12CC[C@@](Nc1cccc(Cl)c1)(C(=O)O)CC2 (single isomer, unassigned) [Example 682] | 46.6 nM | 5180 nM | –
C[C@@H](COc1ccnc2c1[C@H](C)CCC2)C[C@H]1Cc2ccccc2[C@]12CC[C@](C(=O)O)(N1CCc3c(Cl)cccc31)CC2 [Example 713, (1r,2′S,4S)-4-(4-chloro-2,3-dihydro-1H-indol-1-yl)-2′-[(2R)-2-methyl-3-{[(5R)-5-methyl-5,6,7,8-tetrahydroquinolin-4-yl]oxy}propyl]-2′,3′-dihydrospiro[cyclohexane-1,1′-indene]-4-carboxylic acid] | 3.23 nM | 152 nM | –
C[C@@H](COc1ccnc2c1[C@@H](C)CC[C@H]2O)C[C@H]1Cc2ccccc2[C@]12CC[C@@](Nc1cccc(Cl)c1)(C(=O)O)CC2 [Example 674, (1r,2′S,4S)-4-(3-chloroanilino)-2′-[(2R)-3-{[(5S,8R)-8-hydroxy-5-methyl-5,6,7,8-tetrahydroquinolin-4-yl]oxy}-2-methylpropyl]-2′,3′-dihydrospiro[cyclohexane-1,1′-indene]-4-carboxylic acid] | 6.95 nM | 1710 nM | –
C[C@@H](COc1ccnc2ccsc12)C[C@@H]1Cc2cc(F)ccc2[C@]12CC[C@@](Nc1cccc(Cl)c1)(C(=O)O)CC2 [Example 738, (1r,2′R,4R)-4-(3-chloroanilino)-5′-fluoro-2′-{(2R)-2-methyl-3-[(thieno[3,2-b]pyridin-7-yl)oxy]propyl}-2′,3′-dihydrospiro[cyclohexane-1,1′-indene]-4-carboxylic acid] | 7.4 nM | 468 nM | –
C[C@@H](COc1ccnc2c1[C@@H](C(F)(F)F)CCC2)C[C@H]1Cc2ccccc2[C@]12CC[C@@](Nc1cccc(Cl)c1)(C(=O)O)CC2 [Example 698, (1r,2′S,4S)-4-(3-chloroanilino)-2′-[(2R)-2-methyl-3-{[(5S)-5-(trifluoromethyl)-5,6,7,8-tetrahydroquinolin-4-yl]oxy}propyl]-2′,3′-dihydrospiro[cyclohexane-1,1′-indene]-4-carboxylic acid] | 65.6 nM | 5430 nM | –
C[C@@H]1CCCc2nccc(OCC(CC3=Cc4ccccc4[C@]34CC[C@@](Nc3cccc(Cl)c3)(C(=O)O)CC4)C(F)F)c21 (single isomer, unassigned) [Example 517] | 4.98 nM | – | 550 nM
C[C@@H](COc1ccnc2c1CCCC2C(F)F)C[C@H]1Cc2ccccc2[C@]12CC[C@@](Nc1cccc(Cl)c1)(C(=O)O)CC2 (single isomer, unassigned) [Example 683] | 106 nM | – | 9850 nM
O=C(O)[C@]1(Nc2cccc(Cl)c2)CC[C@@]2(CC1)c1ccccc1CC2CC(COc1ccnc2ccsc12)C(F)F (stereo partly shown) [Example 511, (1r,4r)-4-(3-chloroanilino)-2′-(3,3-difluoro-2-{[(thieno[3,2-b]pyridin-7-yl)oxy]methyl}propyl)-2′,3′-dihydrospiro[cyclohexane-1,1′-indene]-4-carboxylic acid] | 19.9 nM | 2720 nM | –
COc1ccc2c(c1)[C@]1(CC[C@@](Nc3cccc(Cl)c3)(C(=O)O)CC1)[C@@H](C[C@@H](C)COc1ccnc3c1[C@@H](C)CCC3)C2 [Example 783, (1r,2′S,4S)-4-(3-chloroanilino)-6′-methoxy-2′-[(2R)-2-methyl-3-{[(5S)-5-methyl-5,6,7,8-tetrahydroquinolin-4-yl]oxy}propyl]-2′,3′-dihydrospiro[cyclohexane-1,1′-indene]-4-carboxylic acid] | 10.3 nM | 430 nM | –

Now those with a lower Ki [1], led by results:

Ki [1] | Compound | IC50 ([2]; Homo sapiens, NCI-H929, 48 h) | IC50 [2]
1.84 nM | C[C@@H]1CCCc2nccc(OCC(CF)CC3=Cc4ccccc4[C@]34CC[C@@](Nc3cccc(Cl)c3)(C(=O)O)CC4)c21 (single isomer, unassigned) [Example 514] | – | 320 nM
1.55 nM | C[C@@H](COc1ccnc2c1[C@@H](C)CCC2)C[C@H]1Cc2cc3c(cc2[C@]12CC[C@@](Nc1cccc(Cl)c1)(C(=O)O)CC2)OCO3 [Example 842, (1r,4S,6′S)-4-(3-chloroanilino)-6′-[(2R)-2-methyl-3-{[(5S)-5-methyl-5,6,7,8-tetrahydroquinolin-4-yl]oxy}propyl]-6′,7′-dihydro-2′H-spiro[cyclohexane-1,5′-indeno[5,6-d][1,3]dioxole]-4-carboxylic acid] | 81 nM | –
1.52 nM | Cc1cc2c(cc1C)[C@]1(CC[C@@](Nc3cccc(Cl)c3)(C(=O)O)CC1)[C@@H](C[C@@H](C)COc1ccnc3ccsc13)C2 [Example 733, (1r,2′S,4S)-4-(3-chloroanilino)-5′,6′-dimethyl-2′-{(2R)-2-methyl-3-[(thieno[3,2-b]pyridin-7-yl)oxy]propyl}-2′,3′-dihydrospiro[cyclohexane-1,1′-indene]-4-carboxylic acid] | 211 nM | –
0.94 nM | Cc1cccc2c1CC(C[C@@H](C)COc1ccnc3c1[C@H](C)CCC3)[C@]21CC[C@](Nc2cccc(Cl)c2)(C(=O)O)CC1 (single isomer, unassigned) [Example 755] | – | 58.4 nM
0.788 nM | C[C@@H](COc1ccnc2c1[C@H](C)CCC2)CC1Cc2c(Cl)c(F)ccc2[C@]12CC[C@@](Nc1cccc(Cl)c1)(C(=O)O)CC2 (single isomer, unassigned) [Example 747] | – | 118 nM
0.647 nM | C[C@@H](COc1ccnc2c1[C@H](C)CC[C@H]2O)C[C@H]1Cc2ccccc2[C@]12CC[C@@](Nc1cccc(Cl)c1)(C(=O)O)CC2 [Example 673, (1r,2′S,4S)-4-(3-chloroanilino)-2′-[(2R)-3-{[(5R,8S)-8-hydroxy-5-methyl-5,6,7,8-tetrahydroquinolin-4-yl]oxy}-2-methylpropyl]-2′,3′-dihydrospiro[cyclohexane-1,1′-indene]-4-carboxylic acid] | – | 208 nM
0.439 nM | C[C@@H](COc1ccnc2c1[C@H](C)CCC2)C[C@H]1Cc2ccccc2[C@]12CC[C@@](Nc1ccc(F)c(Br)c1)(C(=O)O)CC2 [Example 712, (1r,2′S,4S)-4-(3-bromo-4-fluoroanilino)-2′-[(2R)-2-methyl-3-{[(5R)-5-methyl-5,6,7,8-tetrahydroquinolin-4-yl]oxy}propyl]-2′,3′-dihydrospiro[cyclohexane-1,1′-indene]-4-carboxylic acid] | 74 nM | –
0.384 nM | C[C@@H](COc1ccnc2c1[C@H](C)CCC2)C[C@@H]1Cc2ccc(CO)cc2[C@]12CC[C@@](Nc1cccc(Cl)c1)(C(=O)O)CC2 [Example 869, (1r,2′R,4R)-4-(3-chloroanilino)-6′-(hydroxymethyl)-2′-[(2R)-2-methyl-3-{[(5R)-5-methyl-5,6,7,8-tetrahydroquinolin-4-yl]oxy}propyl]-2′,3′-dihydrospiro[cyclohexane-1,1′-indene]-4-carboxylic acid] | 193 nM | –
0.172 nM | C[C@@H](COc1ccnc2c1[C@H](C)CCC2)C[C@@H]1Cc2cc3c(cc2[C@]12CC[C@@](Nc1cccc(Cl)c1)(C(=O)O)CC2)OCO3 [Example 841, (1r,4R,6′R)-4-(3-chloroanilino)-6′-[(2R)-2-methyl-3-{[(5R)-5-methyl-5,6,7,8-tetrahydroquinolin-4-yl]oxy}propyl]-6′,7′-dihydro-2′H-spiro[cyclohexane-1,5′-indeno[5,6-d][1,3]dioxole]-4-carboxylic acid] | 76.6 nM | –
0.169 nM | CC(O)c1ccc2c(c1)[C@]1(CC[C@@](Nc3cccc(Cl)c3)(C(=O)O)CC1)C(C[C@@H](C)COc1ccnc3c1[C@H](C)CCC3)=C2 (stereo partly drawn) [Example 857, (1r,4R)-4-(3-chloroanilino)-6′-(1-hydroxyethyl)-2′-[(2R)-2-methyl-3-{[(5R)-5-methyl-5,6,7,8-tetrahydroquinolin-4-yl]oxy}propyl]spiro[cyclohexane-1,1′-indene]-4-carboxylic acid] | 143 nM | –
